In BindingDB's records for doi:10.1073/pnas.92.19.8734 (Massachusetts General Hospital, 1995):

Assays:
[1] = biological target: Melatonin receptor type 1A (Homo sapiens, UniProt P48039)
[2] = biological target: T1, Melatonin receptor type 1B (Homo sapiens, UniProt P49286)
T1 sequence (P49286 whole entry): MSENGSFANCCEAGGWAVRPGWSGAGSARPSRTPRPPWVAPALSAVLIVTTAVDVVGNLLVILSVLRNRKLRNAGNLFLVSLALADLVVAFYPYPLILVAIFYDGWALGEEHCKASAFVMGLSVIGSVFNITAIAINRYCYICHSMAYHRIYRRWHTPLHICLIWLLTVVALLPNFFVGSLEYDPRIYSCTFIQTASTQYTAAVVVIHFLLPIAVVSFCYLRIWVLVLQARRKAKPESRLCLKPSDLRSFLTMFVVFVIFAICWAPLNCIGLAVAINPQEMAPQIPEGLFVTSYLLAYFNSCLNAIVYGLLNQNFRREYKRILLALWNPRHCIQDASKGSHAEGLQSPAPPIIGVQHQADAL

Chain of Melatonin receptor type 1A (P48039 whole entry): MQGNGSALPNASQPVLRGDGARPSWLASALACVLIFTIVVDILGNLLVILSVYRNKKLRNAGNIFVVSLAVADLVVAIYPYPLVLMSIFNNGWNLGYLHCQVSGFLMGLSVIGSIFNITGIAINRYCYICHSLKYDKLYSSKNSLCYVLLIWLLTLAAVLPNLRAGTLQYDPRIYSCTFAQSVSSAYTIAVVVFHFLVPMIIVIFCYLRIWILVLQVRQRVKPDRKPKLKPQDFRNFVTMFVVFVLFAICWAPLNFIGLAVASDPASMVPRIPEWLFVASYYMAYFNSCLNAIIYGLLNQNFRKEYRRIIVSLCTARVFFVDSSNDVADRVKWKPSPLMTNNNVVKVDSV

SMILES	Ki [1]	Ki [2]
CC(=O)n1cc(CCN)c2cc(O)ccc21 [NSC_260803]	986 nM	595 nM
NCCc1c[nH]c2ccc(O)cc12 [[3H]-5-HT]		> 10000 nM
COc1cc2nc(N3CCN(C(=O)c4ccco4)CC3)nc(N)c2cc1OC [[3H]-Minipress]	> 10000 nM	> 10000 nM
